Source: patent US20050261478A1, “Compositions and methods for regulating lymphocyte activation” (XCYTE Therapies, Inc., priority 1998, published 2005)
Bridge positions count the residues as written; N and C are the ends. Peptide text beside a SMILES is read from it.

Key:
[1] = molecular target: T1, CD3ε δIg (Homo sapiens, UniProt P04234+P07766); experiment: BIACORE binding of CDR3 peptides; details: peptides cyclized and characterized as pools of 3-5, CD3ε δhuIg impure mixture, nd = non detectable binding, read-out: Binding Affinity, CD3ε δIg
T1 construct: made in house; host or cells: COS-7 (transient, DEAE-dextran); purified on protein A-Sepharose
Method: (§1) Peptides corresponding to the entire CDR3 regions of anti-CD3 and […] mAbs were synthesized, and Tyr/Phe-Cysteine residues were added to both amino and carboxyl termini. Modifications of peptides were made by eliminating one amino acid of the CDR3 region at a time from the terminus. Peptide synthesis was carried out on solid phase by using Fmoc chemistry (HBTU/DIEA activation and TFA cleavage). Crude peptides were combined in a batch of 3-5 peptides and cyclized by air oxidation at pH 8.5. Crude cyclic peptides were purified on a reverse phase HPLC, lyophilized and characterized by analytical HPLC and mass spectroscopy.
(§2) BIACORE uses surface plasmon resonance (SPR) which occurs when surface plasmon waves are excited at a metal/liquid interface. Light is directed at, and reflected due to bimolecular interactions between analyte (in solution) and ligand (immobilized). CD3εδhuIg, CD3εεhuIg and CD28huIg were covalently immobilized on a carboxymethy dextran chip using EDC/NHS chemistry followed by blocking with ethanol amine. Peptides were dissolved in HBS buffer at pH 7.2 with or without 1% DMSO, and were allowed to pass over these fusion protein-immobilized surfaces. Non-specific binding was substrated by passing these peptides over a controlled surface prepared by immobilizing EDC/NHS alone followed by ethanolamine.

[2] = test system: G19-4 anti-CD3 mAb; experiment: ELISA of CD3-Ig fusion proteins captured by immobilized anti-CD3 mAb; type: binding; details: up to 100 μg/ml fusion protein
Text: Transient expression in COS-7 cells was used to generate different CD3-Ig fusion proteins. The plasmids phCD3ε-Ig, and phCD3γ-Ig were transfected individually or in combinations of phCD3ε-Ig+phCD3δ-Ig and phCD3ε-Ig+phCD3γ-Ig into COS-7 by the DEAE-dextran method. Transfected cells were maintained in medium supplemented with a low concentration, 0.5%, FBS and insulin. Spent media were collected in three-day intervals up to three weeks post transfection. Fusion proteins were then purified from spent media by protein A-Sepharose chromatography. Fusion protein expression was confirmed by SDS-PAGE and ELISA using anti-CD3 mAb.
CD3-Ig fusion proteins were characterized by ELISA using a number of anti-CD3 mAbs including G19-4, OKT3, BC3, and 64.1 Anti-CD3 mAbs were immobilized to capture CD3-Ig. An antibody-horseradish peroxidase conjugate specific against human IgG […] was used to detect the binding of CD3-Ig to anti-CD3 mAbs. Like the control CD4-Ig, no binding of CD3δ-Ig to G19-4 was detectable even at 100 μg/ml of the fusion protein (FIG. 20). […] and […] saturated at 4 μg/ml and 20 μg/ml in this assay, respectively. […] In addition, binding affinities of the CD3-Ig fusion proteins to different anti-CD3 antibodies were measured by BIACORE, and the results are shown in Table IV. […]

[3] = test system: CD4^+ T cells; experiment: Proliferation of purified T cell subsets with immobilized antibodies; type: cell-based, human; details: antibodies immobilized on microtiter plates, 4 days
Method: (§3) T cells were isolated from peripheral blood by centrifugation on “FICOLL”, followed by separation into CD4^+ or CD8^+ subsets by depletion of monocytes, B cells, NK cells, and either CD4 or CD8 cells. Cell depletion was performed using mAbs to CD14, CD20, CD11b, and CD8 or CD4 followed by removal of antibody-bound cells using magnetic beads coated with anti-mouse IgG CD4^+ or CD8^+ T cells were >95% pure after the depletion step when analyzed by flow cytometry. Cells were cultured in antibody-coated microtiter plates at 5×10^4 for 4 days, and proliferation was measured by incorporation of ^3H-thymidine for the final 12 hours of culture. Microtiter plates contained immobilized antibodies as indicated, including the control, nonbinding L20 antibody in some wells to equalize the total protein concentration for immobilization. Antibodies were immobilized by incubation at 10 μg/ml each for 18 hr at 37° C., followed by removal of unbound protein by extensive washing.

[4] = test system: CD8^+ T cells; experiment: as above; type: cell-based, human; details: antibodies immobilized on microtiter plates, 4 days
Method: as §3

[5] = molecular target: T2, CD28Ig (Homo sapiens, UniProt P10747); experiment: BIACORE binding of CDR3 peptides; details: peptides cyclized and characterized as pools of 3-5, nd = non detectable binding, read-out: Binding Affinity, CD28Ig
T2 construct: human Ig (huIg) fusion partner
Method: as §1, §2

T1 sequence (P07766 23-126): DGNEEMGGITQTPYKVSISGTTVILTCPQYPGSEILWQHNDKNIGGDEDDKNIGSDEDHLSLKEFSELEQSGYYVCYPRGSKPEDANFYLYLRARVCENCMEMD
T1 sequence (P04234 22-100): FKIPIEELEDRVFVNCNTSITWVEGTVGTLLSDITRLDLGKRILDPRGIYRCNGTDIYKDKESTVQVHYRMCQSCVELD
T2 sequence (P10747 19-152 limits assumed): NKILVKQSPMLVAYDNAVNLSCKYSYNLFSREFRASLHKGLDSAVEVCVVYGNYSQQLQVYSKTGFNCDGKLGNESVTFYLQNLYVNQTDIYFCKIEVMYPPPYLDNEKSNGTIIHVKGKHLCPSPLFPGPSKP

NCCCC[C@@H]1NC(=O)[C@H](Cc2c[nH]c3ccccc23)NC(=O)[C@H](CC(=O)O)NC(=O)[C@H](Cc2ccccc2)NC(=O)[C@@H](NC(=O)[C@@H](N)Cc2ccc(O)cc2)CSSC[C@@H](C(=O)N[C@@H](Cc2ccc(O)cc2)C(=O)O)NC(=O)[C@H](CC(N)=O)NC1=O [YCFDWKNCY (SEQ ID NO:80)] (H-YCFDWKNCY-OH; disulfide 2-8; N-terminus and C-terminus assumed) showed a Kd [1] of 0.5 µM.

With N[C@@H](Cc1ccc(O)cc1)C(=O)N[C@H]1CSSC[C@@H](C(=O)N[C@@H](Cc2ccc(O)cc2)C(=O)O)NC(=O)CNC(=O)[C@H](CC(=O)O)NC(=O)[C@H](Cc2ccc(O)cc2)NC(=O)[C@H](CC(=O)O)NC(=O)[C@H](Cc2ccc(O)cc2)NC1=O [YCYDYDGCY (SEQ ID NO:75)] (H-YCYDYDGCY-OH; disulfide 2-8; N-terminus and C-terminus assumed) the Kd [1] was 10 µM.

With “CD3ε-Ig: CD3ε extracellular domain fused to human IgG1 hinge-CH2-CH3” the “Binding of CD3-Ig fusion protein to G19-4” value [2] was “detectable”.

“OKT-3: MAb anti-CD3, obtained from ATCC (ATCC CRL-8001)” was tested, and the “Proliferation of CD4^+ T cells” value [3] was “minimal” and the “Proliferation of CD8^+ T cells” value [4] was “minimal”.

In the case of “YCARDSDWYFDVCW [cyclized peptide derived from CDR3 region of an anti-CD3 or anti-CD28 mAb]”, the Kd [1] is reported as 50 µM.

With “YCGYSYYYSMDYCW [cyclized peptide derived from CDR3 region of an anti-CD3 or anti-CD28 mAb]” the Kd [5] was 1 µM.

In the case of “YCRSAYYDYDGIAYCW [cyclized peptide derived from CDR3 region of an anti-CD3 or anti-CD28 mAb]”, the Kd [5] is reported as 166 µM and the Kd [1] is reported as 7 µM.

B1: CD3γ-Ig: CD3γ extracellular domain fused to human IgG1 hinge-CH2-CH3 (protein)
chain: QSIKGNHLVKVYDYQEDGSVLLTCDAEAKNITWFKDGKMIGFLTEDKKKWNLGSNAKDPRGMYQCKGSQNKSKPLQVYYRMCQNCIELNAATIS
modifications: left off: a dimerising Fc or GST
notes: CD3γ extracellular domain fused to human IgG1 hinge-CH2-CH3
For B1, the “Binding of CD3-Ig fusion protein to G19-4” value [2] was “detectable”.
